Target: T1, PamZ (Paenibacillus larvae, UniProt V9W634)
T1 construct: gene ERIC2_c18030; full length, 275 residues; pET28a(+) N-terminal His6-tag with TEV site, tag cut; E. coli BL21-Gold(DE3); monomer
Test: X-ray crystal structure
Type: binding
Details: 1.34 Å; co-substrate bound to the C-terminal GNAT domain only; crystals at pH 4.6, 293 K

T1 sequence (V9W634 entry or part of it): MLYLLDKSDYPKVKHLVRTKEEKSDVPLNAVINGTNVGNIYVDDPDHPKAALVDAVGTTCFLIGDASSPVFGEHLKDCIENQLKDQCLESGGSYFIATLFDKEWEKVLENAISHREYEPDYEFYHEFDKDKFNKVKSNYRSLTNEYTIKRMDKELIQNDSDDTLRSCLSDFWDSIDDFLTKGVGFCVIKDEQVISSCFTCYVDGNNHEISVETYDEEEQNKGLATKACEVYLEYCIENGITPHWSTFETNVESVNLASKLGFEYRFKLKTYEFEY

CC(=O)SCCNC(=O)CCNC(=O)[C@H](O)C(C)(C)COP(=O)(O)OP(=O)(O)OC[C@H]1O[C@@H](n2cnc3c(N)ncnc32)[C@H](O)[C@@H]1OP(=O)(O)O [acetyl-CoA]
X-ray crystal structure: We solved the crystal structure of PamZ in complex with acetyl-CoA
